Data reported in patent US20250332173A1, “COMPOUNDS AND METHODS FOR MODULATING NUCLEIC ACID SPLICING” (REMIX THERAPEUTICS INC., priority 2021, published 2025).

What was measured:
Type in all cases: cell-based, human
[1] = tested on: Target C; test: HiBiT protein abundance assay, Target C (Promega Nano-Glo HiBiT Lytic Detection System, knock-in K562 cell line); conditions: Homo sapiens, K562, 24 h, HiBiT K562 cell line, 24 hours, top dose 10 μM; read-out: Effect on protein abundance, Target C (IC50 category)
In short: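 HiBiT knock-in K562 cells (10,000/well) were treated for 24 h at 37 °C with a 10-point 3-fold dilution series, top final concentration 10 μM, DMSO ≤0.25%. Lytic HiBiT luminescence was read, normalized to unmodified K562 and DMSO-treated controls, and IC50 was interpolated from a four-parameter logistic fit.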

[2] = tested on: HTT; test: HiBiT protein abundance assay, HTT HiBiT K562 cell line; conditions: HiBiT K562 cell line, 24 hours, top dose 10 μM; read-out: Effect on protein abundance, HTT (IC50 category)
In short: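 Endogenous targets in K562 knock-in lines carried a HiBiT tag and were treated for 24 h at 37 °C with 10-point 3-fold dilutions (top 10 μM final, DMSO ≤0.25%). Abundance was read as lytic Nano-Glo HiBiT luminescence. IC50 came from a four-parameter logistic fit of normalized response.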

[3] = tested on: SMN2 mRNA; test: RT-qPCR splicing assay, SMN2 canonical junction (CJ) mRNA; conditions: Homo sapiens; Table 5 panel; canonical junction qPCR; compound concentration having 50% response in CJ decrease; read-out: SMN2 IC50 (decrease in CJ mRNA levels)
In short: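 Canonical exon-exon junction transcript levels measured by one-step RT-qPCR of cell lysates, normalized to a housekeeping gene (GAPDH, GUSB or PPIA). Cells used were A673 or K562, exposed for 24 h to compound in 11-point, 3-fold series from 10 uM, with final DMSO at or below 0.25%.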

SMILES	IC50 [1]	IC50 [2]	IC50 [3]
Cc1nc2c(F)cc(-c3cc(F)c4c(=O)n(C5CCNC6(CC6)C5)ccc4c3)cc2o1 (stereo not drawn) [Compound 417, 2-{4-azaspiro[2.5]octan-7-yl}-8-fluoro-6-(4-fluoro-2-methyl-1,3-benzoxazol-6-yl)isoquinolin-1-one]	< 100 nM	< 100 nM	< 100 nM
Cc1cn2cc(-c3cc(F)c4c(=O)n(C5CCOC5)cnc4c3)cc(C#N)c2n1 (stereo in doubt) [Compound 499, (R)-6-(5-fluoro-4-oxo-3-(tetrahydrofuran-3-yl)-3,4-dihydroquinazolin-7-yl)-2-methylimidazo[1,2-a]pyridine-8-carbonitrile]	100 to 1000 nM	100 to 1000 nM	100 to 1000 nM
Cc1cc(-c2cc(F)c3c(=O)n(C4CCNC5(CC5)C4)ccc3c2)cc2cn(C)nc12 (stereo not drawn) [Compound 415, 2-{4-azaspiro[2.5]octan-7-yl}-6-(2,7-dimethylindazol-5-yl)-8-fluoroisoquinolin-1-one]	< 100 nM	< 100 nM	< 100 nM
Cc1cn2cc(-n3ccc4cc(N5C[C@@H](C)N[C@@H](C)C5)ccc4c3=O)nc(C)c2n1 [Compound 454, 2-{2,8-dimethylimidazo[1,2-a]pyrazin-6-yl}-6-[(3R,5S)-3,5-dimethylpiperazin-1-yl]isoquinolin-1-one]	> 10000 nM	> 10000 nM	1000 to 10000 nM
COc1cc(-c2cc(C)c3nc(C)cn3n2)cc2ccn(C3CCNCC3)c(=O)c12 [Compound 399, 6-{2,8-dimethylimidazo[1,2-b]pyridazin-6-yl}-8-methoxy-2-(piperidin-4-yl)isoquinolin-1-one]	100 to 1000 nM	100 to 1000 nM	< 100 nM
Cc1cn2nc(-c3cc(Cl)c4c(=O)n(C5CCNCC5)ccc4c3)cc(C)c2n1 [Compound 390, 8-chloro-6-{2,8-dimethylimidazo[1,2-b]pyridazin-6-yl}-2-(piperidin-4-yl)isoquinolin-1-one; trifluoroacetaldehyde]	< 100 nM	< 100 nM	< 100 nM
Cn1cc2cc(-n3cnc4cc(NC5CCNCC5)ccc4c3=O)ccc2n1 [Compound 162]	> 10000 nM	> 10000 nM	> 10000 nM
Cc1cn2cc(-c3ccc4c(=O)n(C5CCNC6(CC6)C5)ncc4c3)cc(Cl)c2n1 (stereo not drawn) [Compound 510]	1000 to 10000 nM	100 to 1000 nM	< 100 nM
Cc1cn2cc(-c3ccc4c(=O)n(C5CCNC5)cc(C)c4c3)cc(C#N)c2n1 (stereo not drawn) [Compound 442, 2-methyl-6-[4-methyl-1-oxo-2-(pyrrolidin-3-yl)isoquinolin-6-yl]imidazo[1,2-a]pyridine-8-carbonitrile]	> 10000 nM	> 10000 nM	1000 to 10000 nM
Cc1cn2cc(-c3cc(F)c4c(=O)n(C5CCNC5)ccc4c3)cc(C#N)c2n1 (stereo not drawn) [Compound 434, 6-[8-fluoro-1-oxo-2-(pyrrolidin-3-yl)isoquinolin-6-yl]-2-methylimidazo[1,2-a]pyridine-8-carbonitrile]	> 10000 nM	> 10000 nM	< 100 nM
Cc1cc(-c2ccc3c(=O)n([C@@H]4CCNC[C@H]4F)ncc3c2)cc2cn(C)nc12 [Compound 378]	1000 to 10000 nM	1000 to 10000 nM	100 to 1000 nM
Cc1cn2cc(-c3ccc4c(=O)n([C@H]5CCCNC5)ccc4c3)cc(F)c2n1 [Compound 404, 6-{8-fluoro-2-methylimidazo[1,2-a]pyridin-6-yl}-2-[(3S)-piperidin-3-yl]isoquinolin-1-one]	1000 to 10000 nM	1000 to 10000 nM	< 100 nM
CN1CCC(Nc2ccc3c(=O)n(-c4ccc5nn(C)cc5c4)cnc3c2)CC1 [Compound 163]	> 10000 nM	> 10000 nM	> 10000 nM
Cc1cn2nc(-c3cc(C#N)c4c(=O)n(C5CCNC6(CC6)C5)ccc4c3)cc(C)c2n1 (stereo not drawn) [Compound 387]	< 100 nM	< 100 nM	< 100 nM
Cc1cn2cc(-c3cc(F)c4c(=O)n(C5CCNC6(CC6)C5)ccc4c3)cc(Cl)c2n1 (stereo not drawn) [Compound 413, 2-{4-azaspiro[2.5]octan-7-yl}-6-{8-chloro-2-methylimidazo[1,2-a]pyridin-6-yl}-8-fluoroisoquinolin-1-one]	< 100 nM	< 100 nM	< 100 nM
Cc1cn2cc(-c3cc(F)c4c(=O)n(C5CCNC6(CC6)C5)ccc4c3)cc(C)c2n1 (stereo not drawn) [Compound 416, 2-{4-azaspiro[2.5]octan-7-yl}-6-{2,8-dimethylimidazo[1,2-a]pyridin-6-yl}-8-fluoroisoquinolin-1-one]	< 100 nM	< 100 nM	< 100 nM
